Data from ChEMBL document CHEMBL3769390, “Inhibitors of the Antiapoptotic Myeloid Cell Leukemia-1 (Mcl-1) May Provide Effective Treatment for Cancer” (ACS Med Chem Lett, 2015).
pIC50, pKi: −log10 of the molar value.

Assays:
[1] = molecular target: T1, Induced myeloid leukemia cell differentiation protein Mcl-1 (Homo sapiens, UniProt Q07820); experiment: Inhibition of recombinant Mcl-1 (residues 172-327) (unknown origin) using FITC-AHx-EARIAQELRRIGDEFNETYTR-NH2 as substrate after 90 mins by fluorescence polarization anisotropy competition assay
[2] = molecular target: T1, Induced myeloid leukemia cell differentiation protein Mcl-1; experiment: Inhibition of recombinant Mcl-1 (residues 172-327) (unknown origin) using FITC-AHx-GQVGRQLAIIGDDINR-NH2 as substrate after 90 mins by fluorescence polarization anisotropy competition assay
[3] = Inhibition of Bcl-2 (residues i_207 A96T/G110R, delta 35-91, replaced with Bcl-xL35-50) (unknown origin) using FITC-AHx-GQVGRQLAIIGDDINR-NH2 as substrate after 90 mins by fluorescence polarization anisotropy competition assay; set-up: species or system Homo sapiens
[4] = Inhibition of Bcl-xL (residues 1-209, loop 45 to 86 deleted) (unknown origin) using FITC-AHx-GQVGRQLAIIGDDINR-NH2 as substrate after 90 mins by fluorescence polarization anisotropy competition assay; set-up: species or system Homo sapiens
[5] = Antiproliferative activity against human ALMC1 cells after 72 hrs by Cell TiterGlo assay; type: functional, cell-based; conditions: ALMC1, 72 h
[6] = Antiproliferative activity against human ALMC2 cells after 72 hrs by Cell TiterGlo assay; type: functional, cell-based; conditions: ALMC2, 72 h
[7] = Antiproliferative activity against human NCI-H929 cells after 72 hrs by Cell TiterGlo assay; type: functional, cell-based; conditions: NCI-H929, 72 h
[8] = Antiproliferative activity against human OPM2 cells after 72 hrs by Cell TiterGlo assay; type: functional, cell-based; conditions: OPM-2, 72 h
K562 = experiment: Antiproliferative activity against human K562 cells after 72 hrs by Cell TiterGlo assay; type: functional, cell-based; conditions: K562, 72 h

T1 sequence (Q07820 whole entry, the tested form may be a part): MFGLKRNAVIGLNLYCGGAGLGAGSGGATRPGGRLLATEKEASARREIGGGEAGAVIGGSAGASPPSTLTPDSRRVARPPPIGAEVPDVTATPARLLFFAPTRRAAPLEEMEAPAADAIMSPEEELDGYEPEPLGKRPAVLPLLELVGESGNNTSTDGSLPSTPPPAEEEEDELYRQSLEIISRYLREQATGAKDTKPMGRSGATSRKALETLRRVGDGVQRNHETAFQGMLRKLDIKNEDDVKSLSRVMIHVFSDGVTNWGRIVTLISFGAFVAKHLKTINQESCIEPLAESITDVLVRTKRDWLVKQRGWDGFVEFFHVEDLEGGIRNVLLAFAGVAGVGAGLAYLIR

Row | SMILES | pKi [1] | pKi [2] | pKi [3] | pKi [4] | pIC50 (K562) | pIC50 [5] | pIC50 [6] | pIC50 [7] | pIC50 [8]
1 | Cc1cc(OCCCc2c3n(c4c(-c5c(C)nn(C)c5C)cccc24)CCN(Cc2cccc(C(=O)O)c2)C3=O)cc(C)c1Cl | > 7.30 | > 8.15 | 5.19 | 5.66 | 4.40 | 4.88 | 4.47 | 4.82 | 4.79
2 | Cc1cc(OCCCc2c3n(c4c(-c5c(C)nn(C)c5C)c(Cl)ccc24)CCCN(c2cccc(C(=O)O)c2)C3=O)cc(C)c1Cl | – | – | – | 5.72 | 4.63 | 4.92 | 4.68 | 5.20 | –
3 | Cc1cc(OCCCc2c(C(=O)NC(C)(C)C)[nH]c3ccccc23)cc(C)c1Cl | 6.00 | – | – | – | – | – | – | – | –
4 | Cc1cc(OCCCc2c(C(=O)Nc3ccc(C#N)cc3)[nH]c3c(-c4c(C)nn(C)c4C)c(Cl)ccc23)cc(C)c1Cl | 7.29 | – | – | – | – | – | – | – | –

Continued, in another order:

Row | pKi [1] | pKi [2] | pKi [3] | pKi [4] | pIC50 (K562) | SMILES | pIC50 [5] | pIC50 [6] | pIC50 [7] | pIC50 [8]
5 | > 7.30 | – | < 4.00 | 5.45 | – | Cc1cc(OCCCc2c(C(=O)NCc3cc(C(=O)O)n(C)c3)[nH]c3c(-c4c(C)nn(C)c4C)cccc23)cc(C)c1Cl | – | – | – | –
6 | – | – | 4.57 | 5.10 | – | Cc1cc(OCCCc2c(C(=O)NCc3cc(C(=O)O)ccn3)[nH]c3c(-c4c(C)nn(C)c4C)cccc23)cc(C)c1Cl | – | – | – | –
